pIC50: −log10 of the molar value.
Biological target: T1, Na+/H+ exchange transport system (Rattus norvegicus, UniProt P26431)
T1 construct: a pH change in isolated ventricular myocytes (rat) under an acid load; from tissue; host or cells: isolated rat ventricular myocytes
Assay: Inhibitory effect on the Na+/H+ exchange transport system (in vitro), pH change in isolated ventricular myocytes under an acid load
Assay type: cell-based
Method: Inhibitory Effect on the Na^+/H^+ Exchange Transport System (In Vitro)
A test was carried out according to the method of Iemori et al. (J. Hypertension, 8, 153(1990)). In detail, inhibitory effect on the Na^+/H^+ exchange transport system was evaluated by using as an indication a pH change in isolated ventricular myocytes (rat) under an acid load.

T1 sequence (P26431 whole entry): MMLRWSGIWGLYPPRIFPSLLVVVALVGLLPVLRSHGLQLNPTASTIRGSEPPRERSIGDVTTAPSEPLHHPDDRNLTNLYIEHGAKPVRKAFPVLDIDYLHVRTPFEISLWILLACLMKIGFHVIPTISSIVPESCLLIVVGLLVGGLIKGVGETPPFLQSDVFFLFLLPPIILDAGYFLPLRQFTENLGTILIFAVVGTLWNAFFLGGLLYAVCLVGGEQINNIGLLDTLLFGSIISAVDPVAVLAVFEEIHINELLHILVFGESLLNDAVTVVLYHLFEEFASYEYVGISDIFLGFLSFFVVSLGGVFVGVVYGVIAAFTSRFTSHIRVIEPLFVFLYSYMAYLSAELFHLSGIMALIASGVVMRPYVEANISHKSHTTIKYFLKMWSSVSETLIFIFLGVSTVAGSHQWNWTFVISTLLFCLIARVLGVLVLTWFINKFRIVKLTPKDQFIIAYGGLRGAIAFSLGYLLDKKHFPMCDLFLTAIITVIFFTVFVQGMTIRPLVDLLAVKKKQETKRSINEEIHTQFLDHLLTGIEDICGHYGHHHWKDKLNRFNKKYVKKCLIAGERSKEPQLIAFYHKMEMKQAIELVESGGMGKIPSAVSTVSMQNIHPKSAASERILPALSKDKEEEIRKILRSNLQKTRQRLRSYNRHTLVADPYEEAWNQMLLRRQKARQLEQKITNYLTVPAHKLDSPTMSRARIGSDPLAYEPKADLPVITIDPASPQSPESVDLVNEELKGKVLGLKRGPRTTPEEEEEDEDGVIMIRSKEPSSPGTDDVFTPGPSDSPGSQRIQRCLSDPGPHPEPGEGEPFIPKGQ

Row | Molecule | pIC50
1 | N-(aminoiminomethyl)-4,9-dimethyl-6,7-dihydro-5H-benzocycloheptene-8-carboxamide Methanesulfonate [Example 9] | 5.64
2 | N-(aminoiminomethyl)-9-methyl-6,7-dihydro-5H-benzocycloheptene-8-carboxamide Methanesulfonate [Example 8] | 5.15
3 | N-(aminoiminomethyl)-5-methoxy-3,4-dihydronaphthalene-2-carboxamide Methanesulfonate [Example 2] | 7.00
4 | N-(aminoiminomethyl)-2-methylthio-6,7-dihydro-5H-benzocycloheptene-8-carboxamide Methanesulfonate [Example 12] | 6.34
5 | N-(aminoiminomethyl)-2,3-dihydro-benz[b]oxepine-4-carboxamide Methanesulfonate [Example 6] | 7.15
6 | N-(aminoiminomethyl)-2-methylsulfonyl-6,7-dihydro-5H-benzocycloheptene-8-carboxamide Methanesulfonate [Example 13] | < 5.00
7 | N-(aminoiminomethyl)-1-(4-methylphenylsulfonyl)-2,3-dihydro-1H-benz[b]azepine-4-carboxamide Methanesulfonate [Example 4] | 5.48
8 | N-(aminoiminomethyl )-6,7-dihydro-5H-benzocycloheptene-8-carboxamide Methanesulfonate [Example 3] | 7.30
9 | N-(aminoiminomethyl)-7-methyl-6,7-dihydro-5H-benzocycloheptene-8-carboxamide Methanesulfonate [Example 10] | 8.00
10 | N-(aminoiminomethyl)-2,3-dihydro-1H-benz[b]azepine-4-carboxamide dimethane-sulfonate [Example 5] | 6.82
11 | N-(aminoiminomethyl)-4-methylthio-6,7-dihydro-5H-benzocycloheptene-8-carboxamide Methanesulfonate [Example 14] | 7.52
12 | N-(aminoiminomethyl)-4-methylsulfonyl-6,7-dihydro-5H-benzocycloheptene-8-carboxamide Methanesulfonate [Example 15] | 7.52
13 | N-(aminoiminomethyl)-5-methyl-6,7-dihydro-5H-benzocycloheptene-8-carboxamide Methanesulfonate [Example 7] | 7.30
14 | N-(aminoiminomethyl)-3,4-dihydronaphthalene-2-carboxamide Methanesulfonate [Example 1] | 6.52
15 | CC1CC(C(=O)NC(=N)N)=Cc2ccccc2C1 (stereo not drawn) [Example 11, N-(aminoiminomethyl)-6-methyl-6.7-dihydro-5H-benzocycloheptene-8-carboxamide Methanesulfonate] | 6.68

Source: patent US6369110B1, “Substituted guanidine derivatives and process for producing the same” (Sumitomo Pharmaceuticals Company, priority 1998, dated 2002)
